Reference: US8178658B2 (Dow AgroSciences, LLC, priority 2008, dated 2012)
Where two headings read alike, the source gives them in different places.

What was measured:
[1] = system: beet armyworm (BAW; Spodoptera exigua: Lepidoptera); test: 128-well diet tray assay on beet armyworm (BAW 50); assay type: in vivo; conditions: for pest or weed control at 50 µg/cm2, 50 µg/cm2: Spodoptera exigua, 144 h, read-out: BAW 50 ug/cm2
In short: (§1)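 Compound was layered onto artificial diet and dried, then infested: eggs for the 96-well test (12 μg per well, 29° C, dark) and 3–5 second instars for the 128-well tray (50 μg/cm^2, 25° C, 14:10 light-dark). Both ran six days before percent mortality was recorded and averaged across replicates or wells.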

[2] = system: beet armyworm (BAW; Spodoptera exigua: Lepidoptera); test: 96-well microtiter plate-based high throughput (HTS) diet bioassay on beet armyworm (BAW HTS); assay type: in vivo; conditions: for pest or weed control at 12 µg/well, 12 µg/well: Spodoptera exigua, 144 h, read-out: BAW HTS
In short: as §1

[3] = 128-well diet tray assay, 50 μg/cm^2 of test compound on diet, second instar BAW larvae, mortality class
[4] = 96-well HTS diet assay, BAW eggs, 12 μg test compound per well, mortality at 6 d post-treatment, mortality class
[5] = 96-well microtiter plate HTS diet assay, 12 μg test compound per well, BAW eggs, mortality at 6 d post-treatment, mortality class
[6] = 128-well diet tray assay, second instar BAW larvae, 50 μg/cm^2 of test compound on diet, mortality class

SMILES | BAW 50 ug/cm2 [1, 3] | BAW HTS [2, 4] | BAW HTS [2, 5] | pest or weed control at 50 µg/cm2, 50 µg/cm2 [1, 6] [%] | pest or weed control at 12 µg/well, 12 µg/well [2, 4] [%] | pest or weed control at 50 µg/cm2, 50 µg/cm2 [1] [%] | pest or weed control at 12 µg/well, 12 µg/well [2] [%]
CCOC1C(OC)C(C)OC(ON=Cc2ccc(-c3ncc(-c4ccc(SC)cc4)cn3)cc2)C1OC (stereo not shown) [Compound 163] | B (either (1) the compound was tested and less than 50 percent mortality was observed or (2) the compound was not tested) | B (either (1) the compound was tested and less than 50 percent mortality was observed or (2) the compound was not tested) | B (either (1) the compound was tested and less than 50 percent mortality was observed or (2) the compound was not tested) | – | – | – | –
COC1C(C)OC(ON=C(C)c2ccc(-c3cn(-c4ccc(OC(F)(F)F)cc4)cn3)s2)C(OC)C1OC (stereo not shown) [Compound 164] | B (either (1) the compound was tested and less than 50 percent mortality was observed or (2) the compound was not tested) | B (either (1) the compound was tested and less than 50 percent mortality was observed or (2) the compound was not tested) | B (either (1) the compound was tested and less than 50 percent mortality was observed or (2) the compound was not tested) | – | – | – | –
COC1C(C)OC(ON=C(C)c2ccc(-c3cn(-c4ccc(OC(F)(F)F)cc4)cn3)cc2)C(OC)C1OC (stereo not shown) [Compound 165] | A (the compound was tested and at least 50 percent mortality was observed) | B (either (1) the compound was tested and less than 50 percent mortality was observed or (2) the compound was not tested) | B (either (1) the compound was tested and less than 50 percent mortality was observed or (2) the compound was not tested) | – | – | – | –
COC1C(C)OC(ON=C(C)c2cccc(-c3cn(-c4ccc(OC(F)(F)F)cc4)cn3)c2)C(OC)C1OC (stereo not shown) [Compound 166] | A (the compound was tested and at least 50 percent mortality was observed) | B (either (1) the compound was tested and less than 50 percent mortality was observed or (2) the compound was not tested) | B (either (1) the compound was tested and less than 50 percent mortality was observed or (2) the compound was not tested) | – | – | – | –
COC1C(C)OC(ON=C(C)c2ccc(Cl)c(-c3cn(-c4ccc(OC(F)(F)F)cc4)cn3)c2)C(OC)C1OC (stereo not shown) [Compound 167] | A (the compound was tested and at least 50 percent mortality was observed) | B (either (1) the compound was tested and less than 50 percent mortality was observed or (2) the compound was not tested) | B (either (1) the compound was tested and less than 50 percent mortality was observed or (2) the compound was not tested) | – | – | – | –
COC1C(C)OC(ON=C(C)c2ccc(F)c(-c3cn(-c4ccc(OC(F)(F)F)cc4)cn3)c2)C(OC)C1OC (stereo not shown) [Compound 168] | A (the compound was tested and at least 50 percent mortality was observed) | A (the compound was tested and at least 50 percent mortality was observed) | A (the compound was tested and at least 50 percent mortality was observed) | – | – | – | –
CCO[C@@H]1[C@@H](OC)[C@H](C)O[C@@H](O/N=C2\CCc3cc(-c4ncn(-c5ccc(OC(F)(F)F)cc5)n4)ccc32)[C@@H]1OC [Compound 170, 5-[1-(4-trifluoromethoxyphenyl)-1H-[1,2,4]triazol-3-yl]-indan-1-one O-((2S,3R,4R,5S,6S)-4-ethoxy-3,5-dimethoxy-6-methyl-tetrahydropyran-2-yl)-oxime] | A (the compound was tested and at least 50 percent mortality was observed) | – | B (either (1) the compound was tested and less than 50 percent mortality was observed or (2) the compound was not tested) | > 50 | < 50 | – | –
CO[C@@H]1[C@@H](OC)[C@H](C)O[C@@H](ONC(=O)c2ccc(-c3cn(-c4ccc(OC(F)(F)F)cc4)cn3)cc2)[C@@H]1OC [Compound 171, 4-[1-(4-trifluoromethoxyphenyl)-1H-imidazol-4-yl]-N-((2S,3R,4R,5S,6S)-3,4,5-trimethoxy-6-methyl-tetrahydropyran-2-yloxy)-benzamide] | A (the compound was tested and at least 50 percent mortality was observed) | – | A (the compound was tested and at least 50 percent mortality was observed) | > 50 | > 50 | – | –
CO[C@@H]1[C@@H](OC)[C@H](C)O[C@@H](OC(=O)Nc2ccc(C3=NN(c4cccc(Cl)c4)CC3)cc2)[C@@H]1OC [Compound 172] | A (the compound was tested and at least 50 percent mortality was observed) | B (either (1) the compound was tested and less than 50 percent mortality was observed or (2) the compound was not tested) | B (either (1) the compound was tested and less than 50 percent mortality was observed or (2) the compound was not tested) | – | – | – | –
CO[C@@H]1[C@@H](OC)[C@H](C)O[C@@H](OC(=O)Nc2ccc(-c3cn(-c4ccc(OC(F)(F)F)cc4)cn3)cc2)[C@@H]1OC [Compound 173] | A (the compound was tested and at least 50 percent mortality was observed) | A (the compound was tested and at least 50 percent mortality was observed) | A (the compound was tested and at least 50 percent mortality was observed) | – | – | – | –
CO[C@@H]1[C@@H](OC)[C@H](C)O[C@H](OC(=O)Nc2ccc(-c3cn(-c4ccc(OC(F)(F)F)cc4)cn3)cc2)[C@@H]1OC [Compound 174] | A (the compound was tested and at least 50 percent mortality was observed) | A (the compound was tested and at least 50 percent mortality was observed) | A (the compound was tested and at least 50 percent mortality was observed) | – | – | – | –
CCCCO[C@@H]1[C@@H](OC)[C@H](C)O[C@@H](OC(=O)Nc2ccc(-c3cn(-c4ccc(OC(F)(F)F)cc4)cn3)cc2)[C@@H]1OC [Compound 175] | A (the compound was tested and at least 50 percent mortality was observed) | A (the compound was tested and at least 50 percent mortality was observed) | A (the compound was tested and at least 50 percent mortality was observed) | – | – | – | –
CO[C@@H]1[C@@H](OC)[C@H](C)O[C@@H](OC(=S)Nc2ccc(-c3cn(-c4ccc(OC(F)(F)F)cc4)cn3)cc2)[C@@H]1OC [Compound 176] | A (the compound was tested and at least 50 percent mortality was observed) | – | B (either (1) the compound was tested and less than 50 percent mortality was observed or (2) the compound was not tested) | – | – | > 50 | < 50
CCO[C@@H]1[C@@H](OC)[C@H](C)O[C@@H](SC(=O)Nc2ccc(-c3cn(-c4ccc(OC(F)(F)F)cc4)cn3)cc2)[C@@H]1OC [Compound 177] | B (either (1) the compound was tested and less than 50 percent mortality was observed or (2) the compound was not tested) | – | A (the compound was tested and at least 50 percent mortality was observed) | – | – | < 50 | > 50
CCO[C@@H]1[C@@H](OC)[C@H](C)O[C@@H](OC(=O)Nc2ccc(C3=NN(c4ccc(OC(F)(F)F)cc4)CC3)cc2)[C@@H]1OC [Compound 178] | A (the compound was tested and at least 50 percent mortality was observed) | B (either (1) the compound was tested and less than 50 percent mortality was observed or (2) the compound was not tested) | B (either (1) the compound was tested and less than 50 percent mortality was observed or (2) the compound was not tested) | – | – | – | –
CCO[C@@H]1[C@@H](OC)[C@H](C)O[C@@H](OC(=O)Nc2ccc(C3=NN(c4ccc(OC(F)(F)C(F)(F)F)cc4)CC3)cc2)[C@@H]1OC [Compound 179] | A (the compound was tested and at least 50 percent mortality was observed) | B (either (1) the compound was tested and less than 50 percent mortality was observed or (2) the compound was not tested) | B (either (1) the compound was tested and less than 50 percent mortality was observed or (2) the compound was not tested) | – | – | – | –
CCO[C@@H]1[C@@H](OC)[C@H](C)O[C@@H](OC(=O)Nc2ccc(C3=NOC(c4ccc(C(F)(F)F)cc4)C3)cc2)[C@@H]1OC (stereo partly shown) [Compound 181] | A (the compound was tested and at least 50 percent mortality was observed) | A (the compound was tested and at least 50 percent mortality was observed) | A (the compound was tested and at least 50 percent mortality was observed) | – | – | – | –
CCO[C@@H]1[C@@H](OC)[C@H](C)O[C@H](OC(=O)Nc2ccc(C3=NOC(c4ccc(C(F)(F)F)cc4)C3)cc2)[C@@H]1OC (stereo partly shown) [Compound 182] | B (either (1) the compound was tested and less than 50 percent mortality was observed or (2) the compound was not tested) | B (either (1) the compound was tested and less than 50 percent mortality was observed or (2) the compound was not tested) | B (either (1) the compound was tested and less than 50 percent mortality was observed or (2) the compound was not tested) | – | – | – | –
CCO[C@@H]1[C@@H](OC)[C@H](C)O[C@@H](OC(=O)Nc2ccc(C3CC(c4ccc(OC(F)(F)F)cc4)=NO3)cc2)[C@@H]1OC (stereo partly shown) [Compound 183] | A (the compound was tested and at least 50 percent mortality was observed) | A (the compound was tested and at least 50 percent mortality was observed) | A (the compound was tested and at least 50 percent mortality was observed) | – | – | – | –
